Measurements as given in publication PMC6788984, “High-potency ligands for DREADD imaging and activation in rodents and monkeys” (Nature Communications, 2019).
Values joined by “and” are separate entries in the source; they are usually repeats but may differ in a detail not shown here. Equal entries are not always repeated. “Also recorded” adds a separate entry of the source.

How the values were obtained:
[1] = test system: untransfected HEK-293 cells; test: Negative controls of the functional assays: HEK-293 cells without DREADD; assay type: cell-based, human
hM3Dq [2] = target: T1, hM3Dq (Homo sapiens, UniProt P20309, A239G/Y149C); test: Intracellular Ca2+ assay (GCaMP6f) in HEK-293 cells transfected with hM3Dq; assay type: cell-based; parameters: host or cells: HEK-293; settings: fluorescent assay in HEK-293 cells
T1 sequence (P20309 whole entry Y149C/A239G): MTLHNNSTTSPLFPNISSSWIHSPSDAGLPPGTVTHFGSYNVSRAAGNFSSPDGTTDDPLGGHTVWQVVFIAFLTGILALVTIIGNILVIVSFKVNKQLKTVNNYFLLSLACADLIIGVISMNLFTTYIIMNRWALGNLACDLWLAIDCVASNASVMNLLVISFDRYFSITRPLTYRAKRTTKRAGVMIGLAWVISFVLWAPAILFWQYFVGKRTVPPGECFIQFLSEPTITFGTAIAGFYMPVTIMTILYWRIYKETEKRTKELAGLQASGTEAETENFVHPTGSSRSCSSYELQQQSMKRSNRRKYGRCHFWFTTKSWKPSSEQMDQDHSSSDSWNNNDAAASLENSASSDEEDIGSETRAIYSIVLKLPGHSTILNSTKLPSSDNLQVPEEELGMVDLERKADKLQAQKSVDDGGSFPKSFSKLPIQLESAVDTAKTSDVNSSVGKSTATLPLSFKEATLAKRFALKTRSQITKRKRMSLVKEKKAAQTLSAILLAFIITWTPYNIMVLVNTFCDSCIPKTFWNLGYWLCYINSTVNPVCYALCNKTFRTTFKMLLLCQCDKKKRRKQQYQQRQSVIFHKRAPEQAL
Protocol: (§1) The indicated amount of cDNA was transfected into HEK-293 cells using polyethylenimine (PEI; Sigma-Aldrich) in a 1–2 DNA:PEI ratio. Cell harvesting for radioligand binding experiments or signaling assays were performed approximately 48 h after transfection.
Intracellular Ca^2+ concentration was monitored using the fluorescent Ca^2+ biosensor GCaMP6f. […] The net change in intracellular Ca^2+ concentration was expressed as F − F0 where F is the fluorescence at a given concentration of ligand and F0 is the average of the baseline values (fluorescence values of buffer-treated wells).

hM4Di [3] = target: T2, hM4Di (Homo sapiens, UniProt P08173, A203G/Y113C); test: BRET Galpha-o1 protein activation assay in HEK-293 cells transfected with hM4Di; assay type: cell-based; parameters: host or cells: HEK-293; settings: BRET-based assay in HEK-293 cells
T2 sequence (P08173 1-479 Y113C/A203G): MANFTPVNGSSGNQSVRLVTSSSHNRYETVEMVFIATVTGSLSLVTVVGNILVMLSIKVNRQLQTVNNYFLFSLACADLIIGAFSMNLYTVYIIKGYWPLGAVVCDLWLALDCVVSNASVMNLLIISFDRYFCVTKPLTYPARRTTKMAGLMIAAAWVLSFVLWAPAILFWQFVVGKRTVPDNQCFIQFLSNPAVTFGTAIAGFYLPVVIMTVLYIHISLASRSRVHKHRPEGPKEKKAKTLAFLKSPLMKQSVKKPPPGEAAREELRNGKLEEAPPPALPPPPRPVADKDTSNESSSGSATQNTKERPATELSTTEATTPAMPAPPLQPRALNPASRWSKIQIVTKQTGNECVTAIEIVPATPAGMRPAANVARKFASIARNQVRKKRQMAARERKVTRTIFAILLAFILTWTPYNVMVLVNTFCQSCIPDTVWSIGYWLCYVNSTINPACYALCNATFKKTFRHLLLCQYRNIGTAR
Protocol: as §1
BRET assays were performed to detect receptor ligand-induced Gαo1 protein activation. […] Forty-eight hour after transfection cells were harvested, washed and resuspended in phosphate-buffered saline (PBS). Approximately, 200,000 cells/well were distributed in 96-well plates, and 5 µM Coelenterazine H (substrate for luciferase) was added to each well. Five minutes after addition of Coelenterazine H, ligands were added to each well. […] Results were calculated for the BRET change (BRET ratio for the corresponding drug minus BRET ratio in the absence of the drug) 5 min after the addition of the ligands.

WT mice = test: Locomotor activity in WT mice; settings: WT mice
From the text: (§2) Wild-type mice (C57BL/6J) were ordered from Jackson Laboratories and rats (Sprague–Dawley) were ordered from Charles River. Rodents were male and ordered at ~6 weeks of age. Transgenic mice were bred at NIDA breeding facility. […] Three male rhesus monkeys (Macaca mulatta) weighed 8–12 kg. All experiments and procedures complied with all relevant ethical regulations for animal testing and research and followed NIH guidelines and were approved by each institute’s animal care and use committees.
(§3) Ten minutes after injection, animals were placed in an open field arena (Opto-varimex ATM3, Columbus Instruments) and their locomotor activity was tracked during 60 min as infrared beam crossings and traveled distance was converted to cm. Animals were repeatedly tested on consecutive sessions (after an initial habituation session with no drug treatment) in a counterbalanced design.

hM4Di [4] = target: T2, hM4Di; test: Locomotor activity in D1-hM4Di mice
From the text: as §2, §3

striatal DREADDs = test: [11C]clozapine PET DREADD occupancy in AAV-DREADD mice; settings: 0.1 mg kg-1 IP
Protocol: Animals were anesthetized with isoflurane or a mix of ketamine/xylazine and prepped on a stereotaxic apparatus (Kopf, Germany). […] When indicated, animals were pretreated with vehicle or the indicated drug 10 min before the injection of the PET radiotracer. Total acquisition time was 60 min.
In all cases, the PET data were reconstructed and corrected for dead-time and radioactive decay. All qualitative and quantitative assessments of PET images were performed using the PMOD software environment (PMOD Technologies, Zurich Switzerland). Binding potential BPND (a relative measure of specific binding) was calculated using a reference tissue model using the cerebellum as a reference tissue in rodents. In macaques, the kinetic data were fitted to a two-tissue compartment model and the concentration of parent in plasma was used as an input function, then the volume of distribution ratios compared to cerebellum were calculated to establish BPND. In all cases, the dynamic PET images were coregistered to MRI templates and time-activity curves were generated using predefined volumes of interest (macaques) or manually drawn in rodents and the described analyses were performed. Receptor occupancy was calculated using the formula: occupancy = (BPND^0 − BPND^Drug)/BPND^0 × 100, where BPND^0 is the binding potential of the baseline condition and BPND^Drug the binding potential when the animals were pretreated with the drug.

hM3Dq [5] = target: T1, hM3Dq; test: Locomotor activity in TH-hM3Dq rats; assay type: in vivo, rat; parameters: host or cells: TH-expressing neurons of the ventral tegmental area in TH:Cre rats (AAV transduction, in vivo); settings: for Locomotor activity, individual animals (Figure 3 Panel G): listed as J60
Protocol: Tyrosine hydroxylase (TH):Cre rats (n = 9; founder, K. Deisseroth lab) or WT littermates (n = 9) were bilaterally injected with AAV2 hSyn-DIO-hM3Dq-mCherry (1ul/hemisphere, Addgene), and allowed to recover for 2 + weeks. […] Vehicle was administered on 2 separate days, and average locomotion was used for comparison with DREADD agonists. Cohort 2 underwent the same procedures, but with a 4 h testing session, and the following IP injections: vehicle (x2), JHU37152 (0.01–0.3 mg kg^−1), JHU37160 (0.01–0.3 mg kg^−1). All drugs were dissolved in 5% DMSO in saline, and injected 1 ml kg^−1.

CCN1CCN(C2=Nc3cc(Cl)ccc3Nc3c(F)cccc32)CC1 [JHU37160, 8-Chloro-11-(4-ethylpiperazin-1-yl)-4-fluoro-5H-dibenzo[b,e][1,4]diazepine]
functional response in HEK-293 cells lacking DREADDs [1]: no responses were observed; also recorded: did not produce any agonistic effect
functional response, BRET (Go-alpha-Rluc8, beta1, gamma2-mVenus), no DREADD ([1]; HEK-293 cells): did not show any functional response
functional response, GCaMP6f, no DREADD ([1]; HEK-293 cells): did not show any functional response
EC50 (hM3Dq [2]): 18.5 nM
EC50 (hM4Di [3]): 0.2 nM
locomotor activity (WT mice; 0.01 to 1 mg kg-1): without any significant locomotor effects
Locomotor activity, individual animals (Figure 3 Panel A) (WT mice; dose 0.01): 15.4443 and 132.603 and 147.829 and 129.309 and 75.7603 and 45.5126 and 63.7894 and 145.958 and 96.1391 and 10.074 and 65.3531 and 48.0503 and 10.0356 and 25.3389 and 152.354 and 157.609 and 175.04
Locomotor activity, individual animals (Figure 3 Panel A) (WT mice; dose 0.1): 28.3765 and 136.794 and 39.0145 and 128.13 and 27.5178 and 138.037 and 95.0881 and 162.364 and 107.636 and 24.3135 and 117.274 and 117.261 and 37.3098 and 136.435 and 99.1126 and 117.312 and 123.413
Locomotor activity, individual animals (Figure 3 Panel A) (WT mice; dose 1): 10.497 and 121.35 and 79.3619 and 104.303 and 59.97 and 24.8262 and 41.2959 and 159.16 and 61.4696 and 5.601 and 141.242 and 63.7125 and 17.4822 and 64.5071 and 75.0041 and 144.933 and 145.945
locomotor activity (hM4Di [4]; D1-hM4Di mice, 0.01 to 1 mg kg-1): selectively inhibiting locomotor activity
Locomotor activity, individual animals (Figure 3 Panel C) (hM4Di [4]; dose 0.01): 87.297 and 55.7522 and 80.3935 and 127.49 and 164.341 and 150.985 and 118.596 and 28.6623 and 109.457 and 25.9025 and 156.84
Locomotor activity, individual animals (Figure 3 Panel C) (hM4Di [4]; dose 0.1): 22.2583 and 26.4102 and 36.6386 and 50.3064 and 38.3173 and 43.9761 and 103.495 and 48.2345 and 24.5922 and 6.944 and 42.5594
Locomotor activity, individual animals (Figure 3 Panel C) (hM4Di [4]; dose 1): 71.4509 and 37.5721 and 8.672 and 75.5783 and 18.1309 and 89.8357 and 75.9222 and 7.305 and 23.6013 and 9.934 and 15.3384
occupancy of striatal DREADDs (striatal DREADDs): 15–20%
Locomotor activity, individual animals (Figure 3 Panel G) (hM3Dq [5]; dose 0.01): 279.417 and 1024.06 and 48.7042 and 167.624 and 1237.61 and 111.992 and 663.301
Locomotor activity, individual animals (Figure 3 Panel G) (hM3Dq [5]; dose 0.1): 1035.55 and 900.553 and 68.6081 and 759.611 and 1367.43 and 667.9 and 184.82
hM3Dq-stimulated locomotion (hM3Dq [5]; TH-hM3Dq rats, 0.01-0.3 mg kg-1): robust, selective increases in hM3Dq-stimulated locomotion
